Test [1] has as its system CCI-induced cold hypersensitivity. The test can be described thus: Chronic Constriction Injury (CCI)-Induced Model of Neuropathic Pain-Cold Acetone-Hypersensitivity Test. The format is in vivo. As to conditions: Sprague-Dawley rats, 30 mg/kg p.o., HPβCD vehicle, last time point 4 h. The method, then: Fourteen to 35 days following CCI surgery, subjects were placed in elevated observation chambers containing wire mesh floors, and five applications of acetone (0.05 mL/application separated by about 5 min) were spritzed onto the plantar surface of the paw using a multidose syringe. An abrupt withdrawal or lifting of the paw was considered a positive response. The number of positive responses was recorded for each rat over the five trials. Following baseline withdrawal determinations, compounds were administered in the indicated vehicle, by the indicated route (see Table 6). The number of withdrawals was re-determined 1 to 4 h after compound administration.

Another test relates to tactile allodynia. Description: Spinal Nerve Ligation (SNL) Model of Neuropathic Pain-Tactile Allodynia Test. The class given is in vivo, rat. The following applies: L5 SNL rats, 30 mg/kg p.o., HPβCD vehicle, last time point 4 h. The source says:
For lumbar 5 (L5) spinal nerve ligation (SNL) studies, anesthesia was induced and maintained on isoflurane inhalation. Fur was clipped over the dorsal pelvic area, and a 2-cm skin incision was made just left of midline over the dorsal aspect of the L4-S2 spinal segments, followed by separation of the paraspinal muscles from spinous processes. The transverse process of L6 was then carefully removed, and the L5 spinal nerve was identified. The left L5 spinal nerve was then ligated tightly with 6-0 silk thread, the muscle was sutured with 4-0 vicryl, and the skin was closed with wound clips. Following surgery, s.c. saline (5 mL) was administered. Behavioral testing was performed four weeks post-ligation. Following baseline von Frey determinations to verify the presence of mechanical allodynia, L5 SNL rats were orally administered the indicated vehicle or drug. […] which the paw ipsilateral to the nerve ligation was withdrawn from the application of a series of calibrated von Frey filaments (0.4, 0.6, 1.0, 2.0, 4, 6, 8 and 15 g; Stoelting; Wood Dale, Ill.). Beginning at an intermediate stiffness (2.0 g), filaments were applied to the mid-plantar hind paw for approximately 5 seconds. to determine the response threshold, a brisk paw withdrawal led to the presentation of the next lighter stimulus, whereas a lack of a withdrawal response led to the presentation of the next stronger stimulus. A total of four responses after the first threshold detection were collected. The 50% withdrawal thresholds were interpolated by the method of Dixon, Efficient analysis of experimental observations. Annu. Rev. Pharmacol. […] Neurosci. […] Threshold data from von Frey filament testing were reported as withdrawal threshold in grams. Data were normalized and results are presented as % MPE (maximum possible effect) of the drug calculated according to the following formula: [formula]

The test system of test [2] is CFA induced paw pressure hypersensitivity. Description: CFA-Induced Paw Pressure Hypersensitivity. The class given is in vivo. The following applies: rat, dose 30, s.c., HPβCD vehicle, time 1 h. The method, then: Prior to testing, rats were acclimated to the handling procedure twice a day for a period of two days. […] The endpoint was automatically reached upon hindpaw withdrawal, and the terminal force was noted (in grams). An initial (baseline) response threshold to the mechanical stimulus was recorded for each animal prior to the injection of complete Freund's adjuvant (CFA). Forty hr following intraplantar CFA injection, the response threshold of the animal to the mechanical stimulus was re-evaluated and compared to the animal's baseline response threshold. A response was defined as a withdrawal of the hindpaw, a struggling to remove the hindpaw or vocalization. […] Immediately following the post-CFA threshold assessment, rats were administered the indicated test compound or vehicle. Post-treatment withdrawal thresholds were assessed at 1 h. Paw withdrawal thresholds were converted to percent reversal of hypersensitivity according to the following formula: % reversal=[(post treatment response−predose response)/(baseline response−predose response)]×100.

For test [3] the following is noted: murine model of acute inflammation; cited from earlier work.

Each structure is given as a SMILES string.

In test [1], `O=C(c1ccccc1)N1CCN(C2CN(C(=O)c3ccc(-c4ccccc4)cc3)C2)CC1` [Cpd 5, 1-[1-(Biphenyl-4-ylcarbonyl)azetidin-3-yl]-4-(phenylcarbonyl)piperazine] had a peak percent inhibition of 26.7%.

Turning to `O=C(c1cscn1)N1CCN(C2CN(C(=O)c3sc4cc(C(F)(F)F)ccc4c3Cl)C2)CC1` [Cpd 335, 1-(1-{[3-Chloro-6-(trifluoromethyl)-1-benzothiophen-2-yl]carbonyl}azetidin-3-yl)-4-(1,3-thiazol-4-ylcarbonyl)piperazine], in the test on tactile allodynia, the “peak % MPE” value was found to be 50.1%. In the case of `O=C(c1ccc2c(ccn2-c2ccc(F)cc2)c1)N1CC(N2CCN(C(=O)c3nccs3)CC2)C1` [Cpd 487, 1-(4-Fluorophenyl)-5-({3-[4-(1,3-thiazol-2-ylcarbonyl)piperazin-1-yl]azetidin-1-yl}carbonyl)-1H-indole], the peak percent inhibition in test [1] was 100%. Also, the percent reversal in test [2] amounted to 61.8%. Moreover, the “peak % MPE” value with tactile allodynia amounted to 61.2%. As for `O=C(c1ccc2c(ccn2-c2ccc(F)c(F)c2)c1)N1CC(N2CCN(C(=O)c3nccs3)CC2)C1` [Cpd 1362, 1-(3,4-Difluorophenyl)-5-({3-[4-(1,3-thiazol-2-ylcarbonyl)piperazin-1-yl]azetidin-1-yl}carbonyl)-1H-indole], in test [2], the percent reversal is reported as 56.7%. Also, the “peak % MPE” value with tactile allodynia was determined as 84.3%. Regarding `O=C(Nc1cccc(-c2ccccc2)c1)OC1CCCCC1` [URB602], the antinociceptive effect entry in test [3] is “showed an antinociceptive effect”.
